Measured values taken from patent US4451399A, “Imidazolecarboxylic acid derivatives” (priority 1979, dated 1984).
In brackets after ≈: the same amount, converted by molar mass.

Assays:
[1] = Concentration in blood after oral administration to mice (oral absorption); format: in vivo; settings: Mouse (ICR 5W male), oral 50 mg/kg; for concentration at 0.5 h: 30 minutes; for concentration at 1 h: 60 minutes; for concentration at 1.5 h: 90 minutes
Description: The imidazolecarboxylic acid derivatives of the present invention have a good oral absorption, as is evident from Table 6.
Concentration in Blood (μg/ml)

[2] = test system: Pseudomonas aeruginosa AJ 2116; experiment: Minimum Inhibitory Concentration (MIC) against Pseudomonas aeruginosa AJ 2116 in a culture; format: cell-based; settings: AJ2116, minimum concentration required to inhibit growth of test organism in a culture
Method: Antibacterial activity was determined with regards to the compounds produced in the examples described above. Some of Comparative Minimum Inhibitory Concentrations (MIC) (the minimum concentration of the compound in micrograms per milliliter required to inhibit the growth of the test organism in a culture) obtained using Pseudomonas aeruginosa AJ 2116 as the test organism, are presented in Table 5.

MIC [2] | SMILES | concentration at 0.5 h [1] | concentration at 1 h [1] | concentration at 1.5 h [1]
12.5 µg/mL (≈ 25.6 µM) | CC1(C)S[C@@H]2[C@H](NC(=O)[C@H](NC(=O)c3[nH]cnc3[N+](=O)[O-])c3ccccc3)C(=O)N2[C@H]1C(=O)O [Example 1, D-α-(4-nitroimidazole-5-carboxyamide) benzyl penicillin] | – | – | –
25 µg/mL (≈ 52.3 µM) | CC1(C)S[C@@H]2[C@H](NC(=O)[C@H](NC(=O)c3[nH]cnc3Cl)c3ccccc3)C(=O)N2[C@H]1C(=O)O [Example 3] | – | – | –
25 µg/mL (≈ 51.1 µM) | Cc1nc(S)[nH]c1C(=O)N[C@@H](C(=O)N[C@@H]1C(=O)N2[C@@H]1SC(C)(C)[C@@H]2C(=O)O)c1ccccc1 [Example 8] | – | – | –
25 µg/mL (≈ 48.5 µM) | CCOC(=O)c1nc[nH]c1C(=O)N[C@@H](C(=O)N[C@@H]1C(=O)N2[C@@H]1SC(C)(C)[C@@H]2C(=O)O)c1ccccc1 [Example 13, D-α-(4-ethoxycarbonylimidazole-5-carboxyamide) benzylpenicillin] | 340 µg/mL | 97 µg/mL | 40000 ng/mL

Further lines, the compound ahead of its results:

SMILES | MIC [2] | concentration at 0.5 h [1] | concentration at 1 h [1] | concentration at 1.5 h [1]
CC1(C)S[C@@H]2[C@H](NC(=O)[C@H](N)c3ccccc3)C(=O)N2[C@H]1C(=O)O [Ampicillin, reference compound] | > 500 µg/mL | 81 µg/mL | 306 µg/mL | 41000 ng/mL
CC1(C)S[C@@H]2[C@H](NC(=O)C(C(=O)O)c3ccccc3)C(=O)N2[C@H]1C(=O)O (stereo partly drawn) [Carbenicillin, reference compound] | 100 µg/mL (≈ 264 µM) | – | – | –
